Assay results reported in publication PMC7406630, “A new ^68Ga-labeled somatostatin analog containing two iodo-amino acids for dual somatostatin receptor subtype 2 and 5 targeting” (EJNMMI Research, 2020).
Like-named read-outs stand apart in the source and are kept apart here. One block for each compound: values may come before it.

Key:
human SST2 [1] = target: T1, human SST2 (Homo sapiens, UniProt P30874); assay: Competition binding assay on HEK-SST2 cells with ^125I-labeled SS-14; conditions: read-out: SST2 IC50, nM (95% CI), ^125I-SS-14 radioligand, 3 to 5 sessions in duplicate
T1 construct: expressed in transfected cells; host or cells: HEK293 (HEK-SST2)
T1 sequence (P30874 whole entry): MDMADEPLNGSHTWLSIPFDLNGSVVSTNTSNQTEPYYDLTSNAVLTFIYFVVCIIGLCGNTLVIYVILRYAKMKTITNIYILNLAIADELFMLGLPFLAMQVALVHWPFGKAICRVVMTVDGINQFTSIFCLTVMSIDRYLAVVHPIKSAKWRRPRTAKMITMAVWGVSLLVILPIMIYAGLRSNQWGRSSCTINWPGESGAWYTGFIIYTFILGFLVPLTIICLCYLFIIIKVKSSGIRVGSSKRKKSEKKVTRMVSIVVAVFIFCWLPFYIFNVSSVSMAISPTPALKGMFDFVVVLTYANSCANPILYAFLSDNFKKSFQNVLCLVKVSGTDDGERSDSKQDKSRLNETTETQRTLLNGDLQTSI
Method: Human Embryonic Kidney (HEK293) cells (a kind gift from Dr. A. Mühlethaler-Mottet, Pediatric Hematology-Oncology Unit, Lausanne University Hospital, Switzerland) were stably transfected with plasmids encoding the human SST2 and SST5 (HEK-SST2 and HEK-SST5) and cultivated as previously described. Non-transfected HEK cells were used as a negative control.
Binding assays were performed as described previously.

human SST2 [2] = target: T1, human SST2; assay: cAMP accumulation experiments on HEK-SST2 cells (agonistic potency); assay type: cell-based; conditions: for EC50: read-out: SST2 EC50, nM (95% CI), cAMP, HEK-SST2 cells, 3 to 4 sessions in duplicate
Method: (§1) Human Embryonic Kidney (HEK293) cells (a kind gift from Dr. A. Mühlethaler-Mottet, Pediatric Hematology-Oncology Unit, Lausanne University Hospital, Switzerland) were stably transfected with plasmids encoding the human SST2 and SST5 (HEK-SST2 and HEK-SST5) and cultivated as previously described [25]. Non-transfected HEK cells were used as a negative control.
(§2) cAMP accumulation experiments on HEK-SST2 and HEK-SST5 cells were performed with cAMP direct immunoassay kit (colorimetric, K371, BioVision) as described previously [25].

human SST5 [3] = target: T2, human SST5 (Homo sapiens, UniProt P35346); assay: cAMP accumulation experiments on HEK-SST5 cells (agonistic potency); assay type: cell-based; conditions: read-out: SST5 EC50, nM (95% CI), 3 to 4 sessions in duplicate
T2 construct: expressed in transfected cells; host or cells: HEK293 (HEK-SST5)
T2 sequence (P35346 whole entry): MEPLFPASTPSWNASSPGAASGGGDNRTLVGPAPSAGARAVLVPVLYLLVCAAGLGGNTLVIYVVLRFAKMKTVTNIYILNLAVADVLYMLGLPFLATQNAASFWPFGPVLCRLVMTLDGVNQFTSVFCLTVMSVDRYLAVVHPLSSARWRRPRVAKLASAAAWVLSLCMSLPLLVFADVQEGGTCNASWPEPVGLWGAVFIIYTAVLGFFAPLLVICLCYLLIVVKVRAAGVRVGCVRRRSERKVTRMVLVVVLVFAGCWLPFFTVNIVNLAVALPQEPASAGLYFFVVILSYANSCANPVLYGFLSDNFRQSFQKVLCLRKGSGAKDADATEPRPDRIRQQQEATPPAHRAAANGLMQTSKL
Method: as §1, §2

SST5 [4] = tested on: SST5; parameters: method as in PMID 25918675; conditions: cited from earlier work
human SST2 [5] = target: T1, human SST2; parameters: method as in PMID 29523357; conditions: read-out: SST2 IC50, nM (95% CI); HEK-SST2 cells, ^125I-SS-14 radioligand; published earlier but measured head-to-head; cited from earlier work
human SST5 [6] = target: T2, human SST5; parameters: method as in PMID 29523357; conditions: read-out: SST5 IC50, nM (95% CI); HEK-SST5 cells, ^125I-SS-14 radioligand; published earlier but measured head-to-head; cited from earlier work
human SST2 [7] = target: T1, human SST2; parameters: method as in PMID 29523357; conditions: read-out: SST2 EC50, nM (95% CI); cAMP, HEK-SST2 cells; cited from earlier work
human SST5 [8] = target: T2, human SST5; parameters: method as in PMID 29523357; conditions: read-out: SST5 EC50, nM (95% CI); cAMP, HEK-SST5 cells; cited from earlier work
SST2 = tested on: SST2; parameters: method as in PMID 10774879; conditions: cited from earlier work
SST5 [9] = tested on: SST5; parameters: method as in PMID 10774879; conditions: cited from earlier work
[10] = in vivo; cited from earlier work

IC50 (human SST2 [1]): 0.32 nM
Factor of reduction of agonistic potency for SST2 vs ST8950 (human SST2 [2]; after ^natGa-DOTA conjugation): 1.6
EC50 (human SST2 [2]): 0.46 nM
Compound: CC(C)[C@@H]1NC(=O)[C@H](CCCCN)NC(=O)[C@@H](Cc2c[nH]c3ccccc23)NC(=O)[C@H](Cc2ccc(O)c(I)c2)NC(=O)[C@@H](NC(=O)[C@@H](Cc2ccc(N)c(I)c2)NC(=O)CN2CCN(CC(=O)O)CCN(CC(=O)O)CCN(CC(=O)O)CC2)CSSC[C@@H](C(=O)N[C@H](C(N)=O)[C@@H](C)O)NC1=O [^natGa-DOTA-ST8950, metal not drawn]

IC50 (human SST2 [1]): 7.5 nM
EC50 (human SST2 [2]): 9.8 nM
Compound: CC(C)[C@@H]1NC(=O)[C@H](CCCCN)NC(=O)[C@@H](Cc2c[nH]c3ccccc23)NC(=O)[C@H](Cc2ccc(O)cc2)NC(=O)[C@@H](NC(=O)[C@@H](Cc2ccc(N)cc2)NC(=O)CN2CCN(CC(=O)O)CCN(CC(=O)O)CCN(CC(=O)O)CC2)CSSC[C@@H](C(=O)N[C@H](C(N)=O)[C@@H](C)O)NC1=O [^natGa-DOTA-ST8951, metal not drawn]

EC50 (human SST5 [3]): 39 nM
Compound: C[C@@H](O)[C@H](NC(=O)[C@@H]1CSSC[C@H](NC(=O)[C@@H](Cc2ccccc2)NC(=O)CN2CCN(CC(=O)O)CCN(CC(=O)O)CCN(CC(=O)O)CC2)C(=O)N[C@@H](Cc2ccc(O)cc2)C(=O)N[C@H](Cc2c[nH]c3ccccc23)C(=O)N[C@@H](CCCCN)C(=O)N[C@@H]([C@@H](C)O)C(=O)N1)C(=O)O [^natGa-DOTA-TATE, metal not drawn]
IC50 (SST5 [4]): > 1000 nM

More lines, now with the values behind:

Compound: Pasireotide
IC50 (human SST2 [5]): 3.1 nM
IC50 (human SST5 [6]): 0.2 nM
EC50 (human SST2 [7]): 1.1 nM
EC50 (human SST5 [8]): 0.6 nM

Compound: [^68Ga][Ga-1,4,7,10-tetraazacyclododecane-1,4,7,10-tetraacetic acid^0,Tyr^3]-octreotide [[^68Ga]Ga-DOTA-TOC]
IC50 (SST2): 2.5 ± 0.5 nM
IC50 (SST5 [9]): 73 ± 21 nM

Compound: [^68Ga][Ga-DOTA^0,Tyr^3,Thr^8]-octreotate [[^68Ga]Ga-DOTA-TATE]
IC50 (SST2): 0.2 ± 0.04 nM
Blood values [10]: 0.4 ± 0.0 %IA/g
Liver uptake [10]: 0.4 ± 0.2 %IA/g
